Measured values published in patent publication US10377778B2, “Lead and thorium compounds” (Sciencons AS, priority 2017, dated 2019).

What was measured:
C4-2 cells = assay: Radiolytic stability: cell binding fraction after storage in ^224Ra solution; design: species or system human
Procedure: Initial activity in the solution was about 5 MBq/ml causing an absorbed radiation dose to the solution of about 1.8 Gy after 24 h and 3.3 Gy after 48 hours. The data (Table 2) indicate a slight decline at the longest exposure time but in general a relatively strong radiolytic resistance of the ligand was observed, which is compatible with centralized production and shipment to the end user ^224Ra-based generator solution with or without removal of ^224Ra prior to the administration of product.

PSMA-positive xenografts = assay: Biodistribution of single targeting solution (purified ^212Pb-ligand) in mice with PSMA-positive xenografts; type: in vivo
Procedure: Using a ^212Pb/^224Ra solution for reaction with p-SCN-Bn-TCMC-PSMA ligand 1 as described, purified ^212Pb-p-SCN-Bn-TCMC-PSMA ligand 1 was purified using a Sephadex G-10 gel filtration column and about 30 kBq and 300 ng of the purified radioligand product was injected per animal. […] The tumor-to-tissue ratios (Table 4) indicates suitability for radioligand targeting with ^212Pb.

[1] = test system: C4-2 PSMA positive human prostate cells xenografts; assay: Comparative therapy experiment in nude mice with C4-2 xenografts; type: in vivo; conditions: 52 MBq ^177Lu-PSMA-617 or 320 kBq ^212Pb-ligand 1
Procedure: Male nude mice were inoculated in the flanks with C4-2 PSMA positive human prostate cells and 2 weeks later when tumors were 5-7 mm in diameters. Groups of 8 animals each received saline, 52 MBq of ^177Lu-PSMA-617 or 320 kBq of ^212Pb-p-SCN-Bn-TCMC-PSMA ligand 1. Animals were sacrificed when tumor size reached 20 mm due to animal welfare requirements. […] For ^212Pb the effective half-life was assumed to be 10.6 h, 10% of injected dose per gram decays in tumor and 100% of radiation in a tumor is absorbed in the tumor, 100% retention of ^212Pb and daughters in the tumors and 8 MeV radiation energy per decay. The tumor dosimetry for the injected activities gave on average 35.9 Gy to tumors for ^177Lu-PSMA-617 and 2.06 Gy to tumors for ^212Pb-p-SCN-Bn-TCMC-PSMA ligand 1 groups respectively.

NC(=O)CN1CCN(CC(N)=O)CCN(CC(N)=O)C(Cc2ccc(NC(=S)NCC3CCC(C(=O)NC(Cc4ccc5ccccc5c4)C(=O)NCCCCC(NC(=O)NC(CCC(=O)O)C(=O)O)C(=O)O)CC3)cc2)CN(CC(N)=O)CC1.[212Pb+2] (centres unmarked) [^212Pb-p-SCN-Bn-TCMC-PSMA ligand 1]
Cell binding fraction (C4-2 cells; kept in ^224Ra solution 4 h): 52.3% | Cell binding fraction (C4-2 cells; kept in ^224Ra solution 24 h (about 1.8 Gy)): 48.16% | Cell binding fraction (C4-2 cells; kept in ^224Ra solution 48 h (about 3.3 Gy)): 37.18% | Tumor/Femur ratio (PSMA-positive xenografts; 1 h): 30.4 | Tumor/blood ratio (PSMA-positive xenografts; 1 h): 14.9 | Tumor/kidneys ratio (PSMA-positive xenografts; 1 h): 0.41 | Tumor/muscle ratio (PSMA-positive xenografts; 1 h): 42.6 | Tumor/Femur ratio (PSMA-positive xenografts; 2 h): 39.7 | Tumor/blood ratio (PSMA-positive xenografts; 2 h): 29.4 | Tumor/kidneys ratio (PSMA-positive xenografts; 2 h): 0.62 | Tumor/muscle ratio (PSMA-positive xenografts; 2 h): 72.1 | Tumor/Femur ratio (PSMA-positive xenografts; 4 h): 24.8 | Tumor/blood ratio (PSMA-positive xenografts; 4 h): 30.7 | Tumor/kidneys ratio (PSMA-positive xenografts; 4 h): 1.54 | Tumor/muscle ratio (PSMA-positive xenografts; 4 h): 61.5 | Tumor/Femur ratio (PSMA-positive xenografts; 8 h): 19.8 | Tumor/blood ratio (PSMA-positive xenografts; 8 h): 112.7 | Tumor/kidneys ratio (PSMA-positive xenografts; 8 h): 3.60 | Tumor/muscle ratio (PSMA-positive xenografts; 8 h): 366.2 | Biodistribution, Bladder (PSMA-positive xenografts; 1 h post injection): 36.86 % ID/g | Biodistribution, Bladder (PSMA-positive xenografts; 2 h post injection): 6.85 % ID/g | Biodistribution, Bladder (PSMA-positive xenografts; 4 h post injection): 3.53 % ID/g | Biodistribution, Bladder (PSMA-positive xenografts; 8 h post injection): 0.26 % ID/g | Biodistribution, Blood (PSMA-positive xenografts; 1 h post injection): 1.77 % ID/g | Biodistribution, Blood (PSMA-positive xenografts; 2 h post injection): 0.54 % ID/g | Biodistribution, Blood (PSMA-positive xenografts; 4 h post injection): 0.46 % ID/g | Biodistribution, Blood (PSMA-positive xenografts; 8 h post injection): 0.13 % ID/g | Biodistribution, Brain (PSMA-positive xenografts; 1 h post injection): 0.61 % ID/g | Biodistribution, Brain (PSMA-positive xenografts; 2 h post injection): 0.04 % ID/g | Biodistribution, Brain (PSMA-positive xenografts; 4 h post injection): 0.07 % ID/g | Biodistribution, Brain (PSMA-positive xenografts; 8 h post injection): 0.02 % ID/g | Biodistribution, Femur (PSMA-positive xenografts; 1 h post injection): 0.87 % ID/g | Biodistribution, Femur (PSMA-positive xenografts; 2 h post injection): 0.40 % ID/g | Biodistribution, Femur (PSMA-positive xenografts; 4 h post injection): 0.57 % ID/g | Biodistribution, Femur (PSMA-positive xenografts; 8 h post injection): 0.74 % ID/g | Biodistribution, Heart (PSMA-positive xenografts; 1 h post injection): 0.78 % ID/g | Biodistribution, Heart (PSMA-positive xenografts; 2 h post injection): 0.20 % ID/g | Biodistribution, Heart (PSMA-positive xenografts; 4 h post injection): 0.52 % ID/g | Biodistribution, Heart (PSMA-positive xenografts; 8 h post injection): 0.09 % ID/g | Biodistribution, Kidneys (PSMA-positive xenografts; 1 h post injection): 63.96 % ID/g | Biodistribution, Kidneys (PSMA-positive xenografts; 2 h post injection): 25.41 % ID/g | Biodistribution, Kidneys (PSMA-positive xenografts; 4 h post injection): 9.19 % ID/g | Biodistribution, Kidneys (PSMA-positive xenografts; 8 h post injection): 4.07 % ID/g | Biodistribution, Large intestine (PSMA-positive xenografts; 1 h post injection): 0.25 % ID/g | Biodistribution, Large intestine (PSMA-positive xenografts; 2 h post injection): 0.39 % ID/g | Biodistribution, Large intestine (PSMA-positive xenografts; 4 h post injection): 0.18 % ID/g | Biodistribution, Large intestine (PSMA-positive xenografts; 8 h post injection): 0.17 % ID/g | Biodistribution, Liver (PSMA-positive xenografts; 1 h post injection): 2.39 % ID/g | Biodistribution, Liver (PSMA-positive xenografts; 2 h post injection): 1.33 % ID/g | Biodistribution, Liver (PSMA-positive xenografts; 4 h post injection): 1.55 % ID/g | Biodistribution, Liver (PSMA-positive xenografts; 8 h post injection): 1.25 % ID/g | Biodistribution, Lungs (PSMA-positive xenografts; 1 h post injection): 1.19 % ID/g | Biodistribution, Lungs (PSMA-positive xenografts; 2 h post injection): 0.40 % ID/g | Biodistribution, Lungs (PSMA-positive xenografts; 4 h post injection): 0.75 % ID/g | Biodistribution, Lungs (PSMA-positive xenografts; 8 h post injection): 0.17 % ID/g | Biodistribution, Muscle (PSMA-positive xenografts; 1 h post injection): 0.62 % ID/g | Biodistribution, Muscle (PSMA-positive xenografts; 2 h post injection): 0.22 % ID/g | Biodistribution, Muscle (PSMA-positive xenografts; 4 h post injection): 0.23 % ID/g | Biodistribution, Muscle (PSMA-positive xenografts; 8 h post injection): 0.04 % ID/g | Biodistribution, Prostate (PSMA-positive xenografts; 1 h post injection): 13.95 % ID/g | Biodistribution, Prostate (PSMA-positive xenografts; 2 h post injection): 3.80 % ID/g | Biodistribution, Prostate (PSMA-positive xenografts; 4 h post injection): 1.48 % ID/g | Biodistribution, Prostate (PSMA-positive xenografts; 8 h post injection): −0.10 % ID/g | Biodistribution, Salivary gland (PSMA-positive xenografts; 1 h post injection): 0.72 % ID/g | Biodistribution, Salivary gland (PSMA-positive xenografts; 2 h post injection): 0.32 % ID/g | Biodistribution, Salivary gland (PSMA-positive xenografts; 4 h post injection): 0.34 % ID/g | Biodistribution, Salivary gland (PSMA-positive xenografts; 8 h post injection): 0.15 % ID/g | Biodistribution, Skin (PSMA-positive xenografts; 1 h post injection): 1.70 % ID/g | Biodistribution, Skin (PSMA-positive xenografts; 2 h post injection): 0.47 % ID/g | Biodistribution, Skin (PSMA-positive xenografts; 4 h post injection): 0.42 % ID/g | Biodistribution, Skin (PSMA-positive xenografts; 8 h post injection): 0.23 % ID/g | Biodistribution, Skull (PSMA-positive xenografts; 1 h post injection): 0.77 % ID/g | Biodistribution, Skull (PSMA-positive xenografts; 2 h post injection): 0.38 % ID/g | Biodistribution, Skull (PSMA-positive xenografts; 4 h post injection): 0.37 % ID/g | Biodistribution, Skull (PSMA-positive xenografts; 8 h post injection): 0.63 % ID/g | Biodistribution, Small intestine (PSMA-positive xenografts; 1 h post injection): 0.34 % ID/g | Biodistribution, Small intestine (PSMA-positive xenografts; 2 h post injection): 0.23 % ID/g | Biodistribution, Small intestine (PSMA-positive xenografts; 4 h post injection): 0.30 % ID/g | Biodistribution, Small intestine (PSMA-positive xenografts; 8 h post injection): 0.08 % ID/g | Biodistribution, Spleen (PSMA-positive xenografts; 1 h post injection): 1.24 % ID/g | Biodistribution, Spleen (PSMA-positive xenografts; 2 h post injection): 0.44 % ID/g | Biodistribution, Spleen (PSMA-positive xenografts; 4 h post injection): 0.54 % ID/g | Biodistribution, Spleen (PSMA-positive xenografts; 8 h post injection): 0.36 % ID/g | Biodistribution, Stomach (PSMA-positive xenografts; 1 h post injection): 0.16 % ID/g | Biodistribution, Stomach (PSMA-positive xenografts; 2 h post injection): 0.22 % ID/g | Biodistribution, Stomach (PSMA-positive xenografts; 4 h post injection): 0.10 % ID/g | Biodistribution, Stomach (PSMA-positive xenografts; 8 h post injection): 0.09 % ID/g | Biodistribution, Testes (PSMA-positive xenografts; 1 h post injection): 4.41 % ID/g | Biodistribution, Testes (PSMA-positive xenografts; 2 h post injection): 0.56 % ID/g | Biodistribution, Testes (PSMA-positive xenografts; 4 h post injection): 0.38 % ID/g | Biodistribution, Testes (PSMA-positive xenografts; 8 h post injection): 0.12 % ID/g | Biodistribution, Tumor (PSMA-positive xenografts; 1 h post injection): 26.44 % ID/g | Biodistribution, Tumor (PSMA-positive xenografts; 2 h post injection): 15.87 % ID/g | Biodistribution, Tumor (PSMA-positive xenografts; 4 h post injection): 14.14 % ID/g | Biodistribution, Tumor (PSMA-positive xenografts; 8 h post injection): 14.65 % ID/g | Biodistribution, Urine (PSMA-positive xenografts; 1 h post injection): 253.36 % ID/g | Biodistribution, Urine (PSMA-positive xenografts; 2 h post injection): 250.85 % ID/g | Biodistribution, Urine (PSMA-positive xenografts; 4 h post injection): 32.12 % ID/g | Biodistribution, Urine (PSMA-positive xenografts; 8 h post injection): 6.76 % ID/g | Survival at day 30 after treatment ([1]; groups of 8, saline group 0%): 75% | Median survival ([1]; saline group 15 days): > 30 days
